Data taken from ChEMBL document CHEMBL1201862, “PubChem BioAssay data set” (2004).
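Assay format: 96-well plates, 48-hour exposure. Here, GI50 denotes the concentration required for 50% inhibition of growth.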 Active and inactive are the calls of the source. No stated cut-off is given here; in the data, active = GI50 up to about 1.1 µM and inactive = higher.

How the values were obtained:
Assay in all cases: DTP human tumour cell line panel, 48 h
A498 = system: A498
ACHN = system: ACHN
CAKI-1 = system: CAKI-1
COLO 205 = system: COLO 205
EKVX = system: EKVX
KM12 = system: KM12
LOX IMVI = system: LOX IMVI
M14 = system: M14
NCI-H226 = system: NCI-H226
NCI-H460 = system: NCI-H460
OVCAR-5 = system: OVCAR-5
OVCAR-8 = system: OVCAR-8
SF-295 = system: SF-295
SN12C = system: SN12C
UACC-257 = system: UACC-257
SK-OV-3 = system: SK-OV-3

Row | SMILES | GI50 (A498) | GI50 (ACHN) | GI50 (CAKI-1) | GI50 (COLO 205) | GI50 (EKVX) | GI50 (KM12) | GI50 (LOX IMVI) | GI50 (M14) | GI50 (NCI-H226) | GI50 (NCI-H460) | GI50 (OVCAR-5) | GI50 (OVCAR-8) | GI50 (SF-295) | GI50 (SN12C) | GI50 (UACC-257) | GI50 (SK-OV-3)
1 | CS/C(=N\c1ccc([N+](=O)[O-])cc1C#N)NC(=O)c1ccccc1 | > 100 µM (inactive) | > 100 µM (inactive) | 94.2 µM (inactive) | > 100 µM (inactive) | 94.8 µM (inactive) | > 100 µM (inactive) | 95.3 µM (inactive) | > 100 µM (inactive) | 33.9 µM (inactive) | > 100 µM (inactive) | > 100 µM (inactive) | > 100 µM (inactive) | > 100 µM (inactive) | > 100 µM (inactive) | > 100 µM (inactive) | –
2 | CCCCCCCCCCCCCCCCNc1cccc2ccccc12 | – | > 100 µM (inactive) | – | > 100 µM (inactive) | > 100 µM (inactive) | > 100 µM (inactive) | > 100 µM (inactive) | > 100 µM (inactive) | > 100 µM (inactive) | > 100 µM (inactive) | – | > 100 µM (inactive) | > 100 µM (inactive) | > 100 µM (inactive) | > 100 µM (inactive) | > 100 µM (inactive)
3 | Cc1nn(C(=O)CC(=O)Nc2ccccc2Cl)c(C)c1/N=N/c1ccccc1Cl | > 100 µM (inactive) | > 100 µM (inactive) | > 100 µM (inactive) | > 100 µM (inactive) | > 100 µM (inactive) | > 100 µM (inactive) | > 100 µM (inactive) | > 100 µM (inactive) | – | > 100 µM (inactive) | > 100 µM (inactive) | > 100 µM (inactive) | > 100 µM (inactive) | > 100 µM (inactive) | > 100 µM (inactive) | > 100 µM (inactive)
4 | C/C(CCn1[nH]c(=O)ccc1=O)=N\OCCCc1ccccc1 | > 100 µM (inactive) | > 100 µM (inactive) | > 100 µM (inactive) | – | > 100 µM (inactive) | > 100 µM (inactive) | > 100 µM (inactive) | > 100 µM (inactive) | > 100 µM (inactive) | > 100 µM (inactive) | > 100 µM (inactive) | > 100 µM (inactive) | > 100 µM (inactive) | > 100 µM (inactive) | > 100 µM (inactive) | –
5 | O=C(Nc1ccc(Cl)cc1Cl)C1C(=O)N(c2ccc(Cl)cc2Cl)C(=O)/C1=N\Nc1ccc([N+](=O)[O-])cc1[N+](=O)[O-] (stereo unspecified) | 47.5 µM (inactive) | 74.5 µM (inactive) | 54.5 µM (inactive) | 52.5 µM (inactive) | > 100 µM (inactive) | 34.5 µM (inactive) | – | 52 µM (inactive) | 39.6 µM (inactive) | 59.8 µM (inactive) | 44.5 µM (inactive) | 60.8 µM (inactive) | 45.3 µM (inactive) | 74.6 µM (inactive) | 29.4 µM (inactive) | > 100 µM (inactive)
6 | O=C(Nc1ccc(Cl)cc1Cl)C1C(=O)C(=O)N(c2ccc(Cl)cc2Cl)C1=O (stereo unspecified) | > 100 µM (inactive) | > 100 µM (inactive) | > 100 µM (inactive) | – | > 100 µM (inactive) | > 100 µM (inactive) | > 100 µM (inactive) | > 100 µM (inactive) | 34.1 µM (inactive) | > 100 µM (inactive) | > 100 µM (inactive) | > 100 µM (inactive) | – | > 100 µM (inactive) | > 100 µM (inactive) | > 100 µM (inactive)
7 | CCOC(=O)C1=C(C)C2C3C(=O)OC(=O)C3C1(C)C1C(=O)OC(=O)C21 (stereo unspecified) | > 100 µM (inactive) | > 100 µM (inactive) | – | > 100 µM (inactive) | > 100 µM (inactive) | > 100 µM (inactive) | > 100 µM (inactive) | > 100 µM (inactive) | > 100 µM (inactive) | > 100 µM (inactive) | – | > 100 µM (inactive) | > 100 µM (inactive) | > 100 µM (inactive) | > 100 µM (inactive) | > 100 µM (inactive)
8 | NC(=O)N=C(NCc1ccccc1)NCc1ccccc1 | – | > 100 µM (inactive) | > 100 µM (inactive) | > 100 µM (inactive) | > 100 µM (inactive) | > 100 µM (inactive) | > 100 µM (inactive) | > 100 µM (inactive) | – | > 100 µM (inactive) | – | > 100 µM (inactive) | > 100 µM (inactive) | > 100 µM (inactive) | > 100 µM (inactive) | > 100 µM (inactive)
9 | CC(=O)N/C(=C\c1ccc(/C=C(\NC(C)=O)c2nc3cc(Cl)ccc3[nH]2)cc1)c1nc2ccccc2[nH]1 | > 100 µM (inactive) | > 100 µM (inactive) | > 100 µM (inactive) | > 100 µM (inactive) | > 100 µM (inactive) | > 100 µM (inactive) | – | > 100 µM (inactive) | > 100 µM (inactive) | > 100 µM (inactive) | > 100 µM (inactive) | > 100 µM (inactive) | – | > 100 µM (inactive) | – | > 100 µM (inactive)
10 | Clc1cccc(C2N3CCCCC3[C@@H]3c4[nH]c5ccccc5c4CCN23)c1 (stereo partly specified) | 31.2 µM (inactive) | 24.2 µM (inactive) | 45 µM (inactive) | – | 56 µM (inactive) | – | – | 27.9 µM (inactive) | – | 22.7 µM (inactive) | 21 µM (inactive) | 41.4 µM (inactive) | 51.1 µM (inactive) | 13.6 µM (inactive) | 30.5 µM (inactive) | 46.9 µM (inactive)
11 | CN(CCN(C)C(=O)CCn1ccc(=O)[nH]c1=O)C(=O)CCn1ccc(=O)[nH]c1=O | – | > 100 µM (inactive) | – | > 100 µM (inactive) | > 100 µM (inactive) | > 100 µM (inactive) | > 100 µM (inactive) | > 100 µM (inactive) | > 100 µM (inactive) | > 100 µM (inactive) | > 100 µM (inactive) | > 100 µM (inactive) | > 100 µM (inactive) | > 100 µM (inactive) | – | –
12 | Cc1ccc(NC(=O)CCc2nnc(S)[nH]2)cc1 | > 100 µM (inactive) | > 100 µM (inactive) | > 100 µM (inactive) | > 100 µM (inactive) | > 100 µM (inactive) | > 100 µM (inactive) | – | > 100 µM (inactive) | > 100 µM (inactive) | > 100 µM (inactive) | > 100 µM (inactive) | > 100 µM (inactive) | > 100 µM (inactive) | > 100 µM (inactive) | > 100 µM (inactive) | > 100 µM (inactive)
13 | CN(C)CC(C)(C)C(/C=C/c1ccccc1)=N\Nc1ccccc1 | 21.8 µM (inactive) | 0.132 µM (active) | – | 3.19 µM (inactive) | 0.378 µM (active) | 0.579 µM (active) | 0.296 µM (active) | 5.01 µM (inactive) | – | 0.659 µM (active) | 0.31 µM (active) | 12.8 µM (inactive) | 0.131 µM (active) | 1.71 µM (inactive) | 10.3 µM (inactive) | 5 µM (inactive)
14 | Fc1ccc(/N=C2C=C/C(=N\c3ccc(F)cc3)c3ccccc3\2)cc1 | > 100 µM (inactive) | > 100 µM (inactive) | – | > 100 µM (inactive) | 33.9 µM (inactive) | – | > 100 µM (inactive) | > 100 µM (inactive) | 77.4 µM (inactive) | 93.1 µM (inactive) | > 100 µM (inactive) | > 100 µM (inactive) | 51.4 µM (inactive) | > 100 µM (inactive) | > 100 µM (inactive) | > 100 µM (inactive)
15 | O=C(CC1(O)C(=O)Nc2ccc([N+](=O)[O-])cc21)c1ccc2ccccc2c1 (stereo unspecified) | > 100 µM (inactive) | > 100 µM (inactive) | – | > 100 µM (inactive) | > 100 µM (inactive) | > 100 µM (inactive) | – | > 100 µM (inactive) | > 100 µM (inactive) | > 100 µM (inactive) | > 100 µM (inactive) | > 100 µM (inactive) | > 100 µM (inactive) | > 100 µM (inactive) | > 100 µM (inactive) | > 100 µM (inactive)
16 | O=C(O)C(Cc1ccccc1)N1C(=O)N/C(=C\c2ccc(F)cc2)C1=O (stereo unspecified) | – | > 100 µM (inactive) | > 100 µM (inactive) | > 100 µM (inactive) | > 100 µM (inactive) | > 100 µM (inactive) | > 100 µM (inactive) | > 100 µM (inactive) | > 100 µM (inactive) | > 100 µM (inactive) | > 100 µM (inactive) | > 100 µM (inactive) | > 100 µM (inactive) | > 100 µM (inactive) | > 100 µM (inactive) | > 100 µM (inactive)
17 | CC1OC(=O)N2CCC=CC12 (stereo unspecified) | > 100 µM (inactive) | > 100 µM (inactive) | – | > 100 µM (inactive) | > 100 µM (inactive) | > 100 µM (inactive) | > 100 µM (inactive) | – | > 100 µM (inactive) | > 100 µM (inactive) | > 100 µM (inactive) | > 100 µM (inactive) | > 100 µM (inactive) | > 100 µM (inactive) | > 100 µM (inactive) | > 100 µM (inactive)
18 | COC(=O)C1C2C=CC(C2)N1[C@@H](C)c1ccccc1 (stereo partly specified) | > 100 µM (inactive) | > 100 µM (inactive) | > 100 µM (inactive) | > 100 µM (inactive) | > 100 µM (inactive) | > 100 µM (inactive) | > 100 µM (inactive) | > 100 µM (inactive) | – | > 100 µM (inactive) | > 100 µM (inactive) | > 100 µM (inactive) | > 100 µM (inactive) | > 100 µM (inactive) | > 100 µM (inactive) | > 100 µM (inactive)
19 | O=[N+]([O-])c1nccn1CC(O)CN1CC1 (stereo unspecified) | > 100 µM (inactive) | 29.1 µM (inactive) | 39 µM (inactive) | 44.6 µM (inactive) | > 100 µM (inactive) | 66.8 µM (inactive) | – | > 100 µM (inactive) | 94 µM (inactive) | 27.6 µM (inactive) | > 100 µM (inactive) | 37.8 µM (inactive) | > 100 µM (inactive) | 61.8 µM (inactive) | 83.9 µM (inactive) | 35.1 µM (inactive)
